We go through 21 compounds from patent publication US9902702B2, “Spirocycloheptanes as inhibitors of rock” (BRISTOL-MYERS SQUIBB COMPANY, priority 2014, dated 2018).

SMILES strings stand for the structures.

For the assay, the target named is ROCK2 (Homo sapiens, UniProt O75116). The assay can be described thus: ROCK assay: phosphorylation of FITC peptide substrate, LABCHIP 3000 mobility shift. In kind it is biochemical. To be noted: 5 μM ATP, 1.5 μM peptide substrate; read-out: ROCK2 Activity (ROCK IC50 range). The procedure:
The effectiveness of compounds of the present invention as ROCK inhibitors can be determined in a 30 μL assay containing 20 mM HEPES, pH 7.5, 20 mM MgCl2, 0.015% Brij-35, 4 mM DTT, 5 μM ATP and 1.5 μM peptide substrate (FITC-AHA-AKRRRLSSLRA-OH). Compounds were dissolved in DMSO so that the final concentration of DMSO was <2%, and the reaction was initiated with Rho kinase variants. After incubation, the reaction was terminated by the addition of EDTA and the phosphorylated and non-phosphorylated peptides separated using a LABCHIP® 3000 Reader (Caliper Life Sciences). […] Compounds were tested in dose-response format, and the inhibition of kinase activity was calculated at each concentration of compound. The inhibition data were fit using a curve-fitting program to determine the IC50; i.e., the concentration of compound required to inhibit 50% of kinase activity.
Representative Examples were tested in the ROCK assay described above and found having ROCK inhibitory activity.

ROCK2, sequence (O75116 whole entry, species assumed): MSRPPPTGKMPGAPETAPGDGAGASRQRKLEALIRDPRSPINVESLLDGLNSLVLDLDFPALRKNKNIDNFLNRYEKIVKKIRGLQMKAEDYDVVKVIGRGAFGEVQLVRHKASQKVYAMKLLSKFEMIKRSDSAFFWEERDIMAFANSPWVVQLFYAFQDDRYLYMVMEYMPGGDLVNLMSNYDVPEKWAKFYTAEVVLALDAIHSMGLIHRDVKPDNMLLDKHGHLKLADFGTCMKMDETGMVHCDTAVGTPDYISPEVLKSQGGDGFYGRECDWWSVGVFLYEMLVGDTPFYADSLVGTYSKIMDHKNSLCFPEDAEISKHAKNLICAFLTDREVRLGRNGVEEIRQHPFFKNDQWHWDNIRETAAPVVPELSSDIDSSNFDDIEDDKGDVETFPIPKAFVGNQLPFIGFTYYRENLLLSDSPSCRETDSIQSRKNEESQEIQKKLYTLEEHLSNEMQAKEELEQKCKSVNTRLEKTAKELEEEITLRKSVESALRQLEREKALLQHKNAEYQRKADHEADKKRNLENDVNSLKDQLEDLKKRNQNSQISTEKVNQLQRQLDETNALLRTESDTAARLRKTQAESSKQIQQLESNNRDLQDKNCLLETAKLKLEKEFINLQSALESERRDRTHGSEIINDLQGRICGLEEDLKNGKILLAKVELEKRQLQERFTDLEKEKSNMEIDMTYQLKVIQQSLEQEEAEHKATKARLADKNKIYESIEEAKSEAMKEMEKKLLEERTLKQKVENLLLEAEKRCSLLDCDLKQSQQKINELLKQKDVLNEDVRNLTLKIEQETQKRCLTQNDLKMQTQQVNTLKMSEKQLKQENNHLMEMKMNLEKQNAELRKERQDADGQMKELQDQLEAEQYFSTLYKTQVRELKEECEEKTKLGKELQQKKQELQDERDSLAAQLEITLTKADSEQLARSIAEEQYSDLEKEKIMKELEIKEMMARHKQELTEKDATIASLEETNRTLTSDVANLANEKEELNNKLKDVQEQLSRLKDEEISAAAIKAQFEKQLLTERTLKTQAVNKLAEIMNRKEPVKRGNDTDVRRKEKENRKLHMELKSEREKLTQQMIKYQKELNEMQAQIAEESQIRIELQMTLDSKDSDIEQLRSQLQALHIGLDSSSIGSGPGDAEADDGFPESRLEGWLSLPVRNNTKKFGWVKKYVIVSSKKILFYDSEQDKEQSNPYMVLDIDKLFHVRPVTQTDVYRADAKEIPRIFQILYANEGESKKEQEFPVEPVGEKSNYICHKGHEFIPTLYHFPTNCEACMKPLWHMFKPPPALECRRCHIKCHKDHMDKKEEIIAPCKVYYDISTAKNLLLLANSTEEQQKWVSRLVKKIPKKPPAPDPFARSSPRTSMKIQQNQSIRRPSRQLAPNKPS

What is called IC50 is the midpoint of a concentration-inhibition curve. For `O=C(NC1CC2(C1)CC(c1n[nH]c(=O)c3ccccc13)C2)c1cnn2cc(OCc3nnc(C4CC4)s3)ccc12` (stereo not drawn) [Example 140, 6-((5-cyclopropyl-1,3,4-thiadiazol-2-yl)methoxy)-N-((αR)-6-(4-oxo-3,4-dihydrophthalazin-1-yl)spiro[3.3]heptan-2-yl)pyrazolo[1,5-α]pyridine-3-carboxamide], the IC50 was 0.2 to 2 nM.

For the compound `O=C(NC1CC2(C1)CC(c1n[nH]c(=O)c3ccccc13)C2)c1cnn2cc(OCC(O)C(F)(F)F)ccc12` [Example 107, N-((aR)-6-(4-oxo-3,4-dihydrophthalazin-1-yl)spiro[3.3]heptan-2-yl)-6-(3,3,3-trifluoro-2-hydroxypropoxy)pyrazolo[1,5-a]pyridine-3-carboxamide], the IC50 lay within 0.2 to 2 nM.

Regarding `O=C(NC1CC2(C1)CC(c1n[nH]c(=O)c3ccccc13)C2)c1cnn2c(C3CC3)c(OCc3ccccc3)ccc12` (stereo not drawn) [Example 125, 6-(benzyloxy)-7-cyclopropyl-N-((αR)-6-(4-oxo-3,4-dihydrophthalazin-1-yl)spiro[3.3]heptan-2-yl)pyrazolo[1,5-α]pyridin-3-carboxamide], the IC50 was 2.01 to 5 nM.

Take `O=C(NC1CC2(C1)CC(c1n[nH]c(=O)c3ccccc13)C2)c1ccnn1C(F)F` [Example 286, 1-(difluoromethyl)-N-((aR)-6-(4-oxo-3,4-dihydrophthalazin-1-yl)spiro[3.3]heptan-2-yl)-1H-pyrazole-5-carboxamide]: the IC50 lay within 15.1 to 100 nM.

On to `CC(C)(O)COc1ccc2c(C(=O)NC3CC4(C3)CC(c3n[nH]c(=O)c5ccccc35)C4)cnn2c1C(N)=O` [Example 110, 6-(2-hydroxy-2-methylpropoxy)-N3-((aR)-6-(4-oxo-3,4-dihydrophthalazin-1-yl)spiro[3.3]heptan-2-yl)pyrazolo[1,5-a]pyridine-3,7-dicarboxamide], for which the IC50 was in the range of 15.1 to 100 nM.

`COc1ccc(-n2nnc(C(=O)NC3CC4(C3)CC(c3n[nH]c(=O)c5ccccc35)C4)c2C)cc1` [Example 115, 1-(4-methoxyphenyl)-5-methyl-N-((aR)-6-(4-oxo-3,4-dihydrophthalazin-1-yl)spiro[3.3]heptan-2-yl)-1H-1,2,3-triazole-4-carboxamide]: the IC50 was 2.01 to 5 nM.

As for `O=c1[nH]nc([C@H]2CC3(C[C@H](Nc4ncc(-c5ccccc5)o4)C3)C2)c2ccccc12` (stereo partly drawn) [Example 44, 4-((aR)-6-((5-phenyloxazol-2-yl)amino)spiro[3.3]heptan-2-yl)phthalazin-1(2H)-one(2H)-one], the IC50 fell in the range of 100 to 2100 nM.

As for `O=C(OC1CC2(C1)CC(c1n[nH]c(=O)c3ccccc13)C2)N1Cc2ccccc2C1` (stereo not drawn) [Example 464, 6-(4-oxo-3,4-dihydrophthalazin-1-yl)spiro[3.3]heptan-2-yl isoindoline-2-carboxylate], the half-inhibitory concentration (IC50) lay within 100 to 2100 nM.

Regarding `[H][C@]1(c2n[nH]c(=O)c3ccccc32)C[C@]2(C[C@@H](NC(=O)c3cnc4cc(OCC(F)F)ccn34)C2)C1` (stereo partly drawn) [Example 436, 7-(2,2-difluoroethoxy)-N-((aR)-6-(4-oxo-3,4-dihydrophthalazin-1-yl)spiro[3.3]heptan-2-yl)imidazo[1,2-a]pyridine-3-carboxamide], the IC50 fell in the range of 0.2 to 2 nM.

`[H][C@]1(c2n[nH]c(=O)c3ccccc32)C[C@]2(C[C@@H](NC(=O)c3cnn4cccc(N5CCOCC5)c34)C2)C1` (stereo partly drawn) [Example 438, 4-morpholino-N-((aR)-6-(4-oxo-3,4-dihydrophthalazin-1-yl)spiro[3.3]heptan-2-yl)pyrazolo[1,5-a]pyridine-3-carboxamide]: the IC50 is 100 to 2100 nM.

For `O=C(NC1CC2(C1)CC(c1n[nH]c(=O)c3ccccc13)C2)N1Cc2ccc(-c3cnn(C4CCOCC4)c3)cc2C1` [Example 251, N-((aR)-6-(4-oxo-3,4-dihydrophthalazin-1-yl)spiro[3.3]heptan-2-yl)-5-(1-(tetrahydro-2H-pyran-4-yl)-1H-pyrazol-4-yl)isoindoline-2-carboxamide], the IC50 was 5.1 to 15 nM.

Consider `O=C(N[C@H]1CC2(C1)C[C@H](c1n[nH]c(=O)c3ccccc31)C2)c1cnn2cc(CN3CCOCC3)ccc12` (stereo partly drawn) [Example 200, 6-(morpholinomethyl)-N-((aR)-6-(4-oxo-3,4-dihydrophthalazin-1-yl)spiro[3.3]heptan-2-yl)pyrazolo[1,5-a]pyridine-3-carboxamide], for which the IC50 was 5.1 to 15 nM.

Take `O=C(NC1CC2(C1)CC(c1n[nH]c(=O)c3ccccc13)C2)c1ccnn1CCC(F)(F)F` [Example 101, N-((aR)-6-(4-oxo-3,4-dihydrophthalazin-1-yl)spiro[3.3]heptan-2-yl)-1-(3,3,3-trifluoropropyl)-1H-pyrazole-5-carboxamide]: the IC50 was 15.1 to 100 nM.

As to `[H][C@]1(c2n[nH]c(=O)c3ccccc32)C[C@]2(C[C@@H](NC(=O)c3nc4ccc(Cl)cc4[nH]3)C2)C1` (stereo partly drawn) [Example 305, 6-chloro-N-((aR)-6-(4-oxo-3,4-dihydrophthalazin-1-yl)spiro[3.3]heptan-2-yl)-1H-benzo[d] imidazole-2-carboxamide], the IC50 was 15.1 to 100 nM.

In the case of `O=C(NC1CC2(C1)CC(c1n[nH]c(=O)c3ccccc13)C2)c1cnn2cc(CN3CCCCC3)ccc12` [Example 202, N-((aR)-6-(4-oxo-3,4-dihydrophthalazin-1-yl)spiro[3.3]heptan-2-yl)-6-(piperidin-1-ylmethyl)pyrazolo[1,5-a]pyridine-3-carboxamide], the IC50 was in the range of 5.1 to 15 nM.

As to `O=C(NC1CC2(C1)CC(c1n[nH]c(=O)c3ccccc13)C2)c1cnn2cc(COCCN3CCOCC3)ccc12` [Example 208, 6-((2-morpholinoethoxy)methyl)-N-((aR)-6-(4-oxo-3,4-dihydrophthalazin-1-yl)spiro[3.3]heptan-2-yl)pyrazolo[1,5-a]pyridine-3-carboxamide], the IC50 fell in the range of 2.01 to 5 nM.

`O=C(NC1CC2(C1)CC(c1n[nH]c(=O)c3ccccc13)C2)c1cnn2cc(-n3ccc(=O)cc3)ccc12` (stereo not drawn) [Example 180, N-((αR)-6-(4-oxo-3,4-dihydrophthalazin-1-yl)spiro[3.3]heptan-2-yl)-6-(4-oxopyridin-1(4H)-yl)pyrazolo[1,5-α]pyridine-3-carboxamide]: the IC50 was in the range of 15.1 to 100 nM.

On to `[H][C@]1(c2n[nH]c(=O)c3ccccc32)C[C@]2(C[C@@H](NC(=O)c3cccc(-n4ccnc4)c3)C2)C1` (stereo partly drawn) [Example 352, 3-(1H-imidazol-1-yl)-N-((aR)-6-(4-oxo-3,4-dihydrophthalazin-1-yl)spiro[3.3]heptan-2-yl)benzamide], for which the IC50 is 15.1 to 100 nM.

In the case of `Cc1nn(C)c(C)c1-c1ccc(NC(=O)NC2CC3(C2)CC(c2n[nH]c(=O)c4ccccc24)C3)cc1` [Example 233, 1-((aR)-6-(4-oxo-3,4-dihydrophthalazin-1-yl)spiro[3.3]heptan-2-yl)-3-(4-(1,3,5-trimethyl-1H-pyrazol-4-yl)phenyl)urea], the IC50 was in the range of 5.1 to 15 nM.

As to `CC(C)(C)n1cc(-c2ccc3c(c2)CN(C(=O)NC2CC4(C2)CC(c2n[nH]c(=O)c5ccccc25)C4)C3)cn1` [Example 252, 5-(1-(tert-butyl)-1H-pyrazol-4-yl)-N-((aR)-6-(4-oxo-3,4-dihydrophthalazin-1-yl)spiro[3.3]heptan-2-yl)isoindoline-2-carboxamide], the IC50 fell in the range of 5.1 to 15 nM.

As to `O=C(NC1CC2(C1)CC(c1n[nH]c(=O)c3ccccc13)C2)c1cnn2cc(Cc3ccccc3)ccc12` [Example 204, 6-benzyl-N-((aR)-6-(4-oxo-3,4-dihydrophthalazin-1-yl)spiro[3.3]heptan-2-yl)pyrazolo[1,5-a]pyridine-3-carboxamide], the IC50 is 0.2 to 2 nM.
